Data on 13 molecules can be found in patent US20260146035A1, “FUSED BICYCLIC COMPOUNDS AND THEIR USE AS MER AND AXL INHIBITORS” (DONG-A ST CO., LTD., priority 2022, published 2026).

One assay concerns the target T1, human AXL (473-end) (Homo sapiens, UniProt P30530).
T1 construct: human AXL (473-end); purchased SignalChem, Canada
T1 sequence (P30530 473-894 limits assumed): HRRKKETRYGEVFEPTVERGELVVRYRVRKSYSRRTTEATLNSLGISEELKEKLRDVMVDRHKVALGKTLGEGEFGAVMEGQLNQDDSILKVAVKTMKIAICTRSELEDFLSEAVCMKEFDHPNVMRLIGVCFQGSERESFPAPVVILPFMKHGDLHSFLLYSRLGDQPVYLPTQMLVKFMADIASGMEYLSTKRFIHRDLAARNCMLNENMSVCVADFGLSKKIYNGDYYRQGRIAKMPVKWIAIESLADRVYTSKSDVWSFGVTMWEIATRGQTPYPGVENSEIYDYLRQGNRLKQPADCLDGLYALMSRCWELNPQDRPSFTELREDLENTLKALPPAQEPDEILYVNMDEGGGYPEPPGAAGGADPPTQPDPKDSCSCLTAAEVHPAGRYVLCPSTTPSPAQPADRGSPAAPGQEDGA
In words: HTRF kinase activity biochemical assay, AXL. The settings on record: 10 μM ATP, 30 minutes pre-incubation. The protocol: (§1) For the SAR (structure-activity relationship) and compound screening, HTRF (Homogeneous Time Resolved Fluorescence) kinase activity assay was employed for all MER, AXL and TYRO3 kinases using Cisbio HTRF® KinEASE™-TK kit (Cisbio, USA). The kit included biotin-labeled TK substrate, streptavidin-XL665, Eu3+-cryptate-labeled TK antibody and HTRF® Detection buffer. There are two main steps in the kinase assay: kinase reaction and detection of phosphorylated substrate. The reaction was carried out in white low volume 384-well plate (Corning, USA) with 25 nL compound in dimethyl sulfoxide in each well. […] After 1 hour incubation at room temperature, the fluorescence intensity was measured with Envision[…] plate reader (PerkinElmer, USA). Upon excitation at 340 nm by UV, the energy from Eu3+ donor of the antibody is transferred to the FRET acceptor XL665, and […] emits light at 665 nm.
(Time-resolved FRET reads energy transfer from a long-lived donor to a nearby acceptor.)

The next assay has as its target T2, human MER (528-end) (Homo sapiens, UniProt Q12866).
T2 construct: human MER (528-end); purchased Camnabio, Japan
T2 sequence (Q12866 528-999 limits assumed): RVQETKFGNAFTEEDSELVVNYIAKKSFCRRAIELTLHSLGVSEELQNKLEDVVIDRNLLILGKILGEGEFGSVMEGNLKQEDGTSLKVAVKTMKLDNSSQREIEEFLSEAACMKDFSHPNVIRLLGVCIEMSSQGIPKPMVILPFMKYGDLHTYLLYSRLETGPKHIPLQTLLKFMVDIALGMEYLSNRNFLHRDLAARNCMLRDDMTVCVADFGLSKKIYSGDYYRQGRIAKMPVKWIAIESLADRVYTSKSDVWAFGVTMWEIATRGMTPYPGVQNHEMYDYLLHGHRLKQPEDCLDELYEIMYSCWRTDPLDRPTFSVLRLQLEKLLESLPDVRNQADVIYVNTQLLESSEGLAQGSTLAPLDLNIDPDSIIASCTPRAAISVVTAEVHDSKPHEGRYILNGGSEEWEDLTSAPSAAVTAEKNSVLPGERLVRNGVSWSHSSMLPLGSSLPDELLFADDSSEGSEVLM
Put plainly: HTRF kinase activity biochemical assay, MER. The settings on record: 10 μM ATP, 30 minutes pre-incubation; read-out: HTRF MERTK IC50. The protocol:
as §1

Another assay concerns the target T3, human TYRO3 (455-end) (Homo sapiens, UniProt Q06418).
T3 construct: TYRO3 (455-end); purchased SignalChem, Canada
T3 sequence (Q06418 455-890 limits assumed): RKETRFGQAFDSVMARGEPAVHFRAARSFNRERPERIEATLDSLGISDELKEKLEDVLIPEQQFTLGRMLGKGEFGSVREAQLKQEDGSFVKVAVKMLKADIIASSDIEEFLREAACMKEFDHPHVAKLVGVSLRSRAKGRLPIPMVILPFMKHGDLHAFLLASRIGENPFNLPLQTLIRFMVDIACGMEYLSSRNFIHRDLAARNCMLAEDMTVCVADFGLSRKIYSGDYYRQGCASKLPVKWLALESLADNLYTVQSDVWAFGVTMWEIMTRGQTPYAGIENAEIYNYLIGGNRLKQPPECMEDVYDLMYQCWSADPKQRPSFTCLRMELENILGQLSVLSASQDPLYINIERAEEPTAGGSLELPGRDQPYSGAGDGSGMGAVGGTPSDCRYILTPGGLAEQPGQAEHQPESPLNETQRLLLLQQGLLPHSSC
In words: HTRF kinase activity biochemical assay, TYRO3. The settings on record: 10 μM ATP, 30 minutes pre-incubation; read-out: HTRF TYRO IC50. The protocol:
as §1

Structures are written as SMILES.

For the molecule `Nc1ncc(C(F)(F)F)cc1C(=O)N[C@H]1CCC[C@@H]1OCc1ccc(-c2ccc3c(c2)CC[C@@H]3N2CCN(CCO)CC2)cc1` [Example 131, 2-amino-N-{(1S,2S)-2-[(4-{(1S)-1-[4-(2-hydroxyethyl)piperazin-1-yl]-2,3-dihydro-1H-inden-5-yl}phenyl)methoxy]cyclopentyl}-5-(trifluoromethyl)pyridine-3-carboxamide], the figures for the IC50 against human AXL (473-end), at human MER (528-end) and on human TYRO3 (455-end) were under 10 nM, under 10 nM and 100 to 1000 nM, respectively.
For the molecule `CC1(C)OCC(CN2CCN(C3CCc4cc(-c5ccc(CO[C@H]6CCC[C@@H]6NC(=O)c6cc(-c7ccc(F)nc7)cnc6N)cc5)ccc43)CC2)O1` (stereo partly drawn) [Example 78, 6-amino-N-[(1S,2S)-2-{[4-(1-{4-[(2,2-dimethyl-1,3-dioxolan-4-yl)methyl]piperazin-1-yl}-2,3-dihydro-1H-inden-5-yl)phenyl]methoxy}cyclopentyl]-6′-fluoro[3,3′-bipyridine]-5-carboxamide], the IC50 – broadly, the concentration at which inhibition is half-maximal – was 10 to 100 nM at human AXL (473-end), under 10 nM at human MER (528-end) and over 1000 nM on human TYRO3 (455-end).
Taken in the same sequence, the figures for `Cn1cc(-c2cnc(N)c(C(=O)N[C@H]3CCC[C@@H]3OCc3ccc(-c4ccc5c(c4)CC(F)(F)C5N4CCN(CCO)CC4)cc3)c2)cn1` (stereo partly drawn) [Example 50, 2-amino-N-{(1S,2S)-2-[(4-{2,2-difluoro-1-[4-(2-hydroxyethyl)piperazin-1-yl]-2,3-dihydro-1H-inden-5-yl}phenyl)methoxy]cyclopentyl}-5-(1-methyl-1H-pyrazol-4-yl)pyridine-3-carboxamide] were under 10 nM, under 10 nM and 100 to 1000 nM.
Taken in the same sequence, the figures for `CN1CCC(n2ccc3cc(-c4ccc(CO[C@H]5CCC[C@@H]5NC(=O)c5cc(-c6cnn(C)c6)cnc5N)cc4)ccc32)CC1` [Example 6, 2-amino-N-[(1S,2S)-2-({4-[1-(1-methylpiperidin-4-yl)-1H-indol-5-yl]phenyl}methoxy)cyclopentyl]-5-(1-methyl-1H-pyrazol-4-yl)pyridine-3-carboxamide] were under 10 nM, under 10 nM and 100 to 1000 nM.
Taken in the same sequence, the figures for `Cn1cc(-c2cnc(N)c(C(=O)N[C@H]3CCC[C@@H]3OCc3ccc(-c4ccc5c(c4)C(C)(C)C[C@H]5N4CCN(CCO)CC4)cc3)c2)cn1` [Example 96, 2-amino-N-{(1S,2S)-2-[(4-{(1R)-1-[4-(2-hydroxyethyl)piperazin-1-yl]-3,3-dimethyl-2,3-dihydro-1H-inden-5-yl}phenyl)methoxy]cyclopentyl}-5-(1-methyl-1H-pyrazol-4-yl)pyridine-3-carboxamide] were 10 to 100 nM, 10 to 100 nM and over 1000 nM.
Consider `Cn1cc(-c2cnc(N)c(C(=O)N[C@H]3CCC[C@@H]3OCc3ccc(-c4ccc5c(c4)ncn5C4CCN(CCO)CC4)cc3)c2)cn1` [Example 156, 2-amino-N-{(1S,2S)-2-[(4-{1-[1-(2-hydroxyethyl)piperidin-4-yl]-1H-benzimidazol-5-yl}phenyl)methoxy]cyclopentyl}-5-(1-methyl-1H-pyrazol-4-yl)pyridine-3-carboxamide], for which the IC50 is over 1000 nM on human AXL (473-end), 100 to 1000 nM on human MER (528-end) and over 1000 nM at human TYRO3 (455-end).
For the molecule `Nc1ncc(-c2cccnc2F)cc1C(=O)N[C@H]1CCC[C@@H]1OCc1ccc(-c2ccc3c(c2)CCCC3N2CCN(CCO)CC2)cc1` (stereo partly drawn) [Example 149, 6-amino-2′-fluoro-N-{(1S,2S)-2-[(4-{5-[4-(2-hydroxyethyl)piperazin-1-yl]-5,6,7,8-tetrahydronaphthalen-2-yl}phenyl)methoxy]cyclopentyl}[3,3′-bipyridine]-5-carboxamide], the 50% inhibitory concentration (IC50) at human AXL (473-end) was under 10 nM; at human MER (528-end), under 10 nM; at human TYRO3 (455-end) it was 10 to 100 nM.
On to `CN1CCN(C2CC(C)(C)c3cc(-c4ccc(CO[C@H]5CCC[C@@H]5NC(=O)c5cc(-c6ccn(C)c(=O)c6)cnc5N)cc4)ccc32)CC1` (stereo partly drawn) [Example 107, 6-amino-N-[(1S,2S)-2-({4-[3,3-dimethyl-1-(4-methylpiperazin-1-yl)-2,3-dihydro-1H-inden-5-yl]phenyl}methoxy)cyclopentyl]-1′-methyl-2′-oxo-1′,2′-dihydro[3,4′-bipyridine]-5-carboxamide], for which the IC50 against human AXL (473-end) was under 10 nM; on human MER (528-end), under 10 nM; at human TYRO3 (455-end), 10 to 100 nM.
For `Cn1cc(-c2cnc(N)c(C(=O)N[C@H]3CCC[C@@H]3OCc3ccc(-c4ccc5c(ccn5C5CCN(CCO)CC5)c4)cc3)c2)cn1` [Example 7, 2-amino-N-{(1S,2S)-2-[(4-{1-[1-(2-hydroxyethyl)piperidin-4-yl]-1H-indol-5-yl}phenyl)methoxy]cyclopentyl}-5-(1-methyl-1H-pyrazol-4-yl)pyridine-3-carboxamide], the IC50 on human AXL (473-end) is under 10 nM; on human MER (528-end), under 10 nM; at human TYRO3 (455-end), 100 to 1000 nM.
Regarding `Cn1cc(-c2cnc(N)c(C(=O)N[C@H]3CCC[C@@H]3OCc3ccc(-c4ccc5c(c4)C[C@H](F)[C@@H]5N4CCN(CCO)CC4)cc3)c2)ccc1=O` (relative stereo) [Example 90, 6-amino-N-{(1S,2S)-2-[(4-{(1R*,2S*)-2-fluoro-1-[4-(2-hydroxyethyl)piperazin-1-yl]-2,3-dihydro-1H-inden-5-yl}phenyl)methoxy]cyclopentyl}-1′-methyl-6′-oxo-1′,6′-dihydro[3,3′-bipyridine]-5-carboxamide], the results for the IC50 against human AXL (473-end), on human MER (528-end) and at human TYRO3 (455-end) were under 10 nM, under 10 nM and over 1000 nM, respectively.
As for `CN(CCC(O)CO)C1CCc2cc(-c3ccc(CO[C@H]4CCC[C@@H]4NC(=O)c4cc(-c5cnn(C)c5)cnc4N)cc3)ccc21` (stereo partly drawn) [Example 125, 2-amino-N-{(1S,2S)-2-[(4-{1-[(3,4-dihydroxybutyl)(methyl)amino]-2,3-dihydro-1H-inden-5-yl}phenyl)methoxy]cyclopentyl}-5-(1-methyl-1H-pyrazol-4-yl)pyridine-3-carboxamide], the IC50 is 10 to 100 nM at human AXL (473-end), 10 to 100 nM at human MER (528-end) and over 1000 nM at human TYRO3 (455-end).
Take `CC1(C)C[C@H](N2CCN(CCO)CC2)c2ccc(-c3ccc(CO[C@H]4CCC[C@@H]4NC(=O)c4cc(-c5ccc(F)nc5)cnc4N)cc3)cc21` [Example 104, 6-amino-6′-fluoro-N-{(1S,2S)-2-[(4-{(1S)-1-[4-(2-hydroxyethyl)piperazin-1-yl]-3,3-dimethyl-2,3-dihydro-1H-inden-5-yl}phenyl)methoxy]cyclopentyl}[3,3′-bipyridine]-5-carboxamide]: the IC50 against human AXL (473-end), at human MER (528-end) and at human TYRO3 (455-end) was under 10 nM throughout.
Consider `Cn1cc(-c2cnc(N)c(C(=O)N[C@H]3CCC[C@@H]3OCc3ccc(-c4ccc5c(ccn5C5CCNCC5)c4)cc3)c2)cn1` [Example 5, 2-amino-5-(1-methyl-1H-pyrazol-4-yl)-N-[(1S,2S)-2-({4-[1-(piperidin-4-yl)-1H-indol-5-yl]phenyl}methoxy)cyclopentyl]pyridine-3-carboxamide], for which the IC50 is under 10 nM on human AXL (473-end), under 10 nM at human MER (528-end) and 100 to 1000 nM at human TYRO3 (455-end).
